{
  "source": "patent US20090214600A1",
  "about": "“METHODS AND COMPOSITIONS FOR GASTRIC RESISTANT ORAL FORMULATIONS FOR INTESTINAL DELIVERY” (priority 2008, published 2009)",
  "key": {"[1]": {"settings": "single dose IM, 1.0 g, cited from earlier work"}, "[2]": {"settings": "single dose IV, 1.0 g, cited from earlier work"}, "[3]": {"settings": "in vivo; cited from earlier work"}, "[4]": {"test": "Rabbit plasma Ceftriaxone concentration after IV administration (control)", "type": "in vivo"}, "[5]": {"settings": "cited from earlier work"}, "[6]": {"test": "Rabbit plasma Ceftriaxone concentration after oral administration of oral formulations (HPLC)", "type": "in vivo", "settings": "oral formulation, 40-80 mg Ceftriaxone, one line per animal (001-005)", "description": "Oral Ceftriaxone formulations were administered to rabbit test subjects through a formulation delivery tube to permit oral administration, illustrative of the same absorption processes as the human stomach and intestines. Rabbits were dosed at a Ceftriaxone load of 40-80 mg depending upon body weight. Rabbits were dosed with all five oral Ceftriaxone formulations and absorption data collected by HPLC analysis of plasma Ceftriaxone concentrations from the heparinized rabbit plasma specimen. Blood draws were collected at pre-determined intervals of time, spun down to separate serum, and serum was removed and frozen prior to delivery to Clinical Pathology Laboratories in Oklahoma City, Okla."}},
  "note": "“And” between values parts separate entries of the source, which are not always exact repeats. Equal values may be shown once. Read-outs that look alike come from different tables or passages of the source.",
  "data": [
    {"compound": "CO/N=C(\\C(=O)N[C@@H]1C(=O)N2C(C(=O)O)=C(CSc3nc(=O)c(=O)[nH]n3C)CS[C@H]12)c1csc(N)n1", "note": "[Ceftriaxone, Ceftriaxone sodium]", "values": [
      {"measurement": "Plasma Concentrations", "setting": "[1]; 0.5 hr", "result": 40, "unit": "µg/mL"},
      {"measurement": "Plasma Concentrations", "setting": "[1]; 1 hr", "result": 68, "unit": "µg/mL"},
      {"measurement": "Plasma Concentrations", "setting": "[1]; 2 hr", "result": 76, "unit": "µg/mL"},
      {"measurement": "Plasma Concentrations", "setting": "[1]; 4 hr", "result": 68, "unit": "µg/mL"},
      {"measurement": "Plasma Concentrations", "setting": "[1]; 6 hr", "result": 56, "unit": "µg/mL"},
      {"measurement": "Plasma Concentrations", "setting": "[1]; 8 hr", "result": 44, "unit": "µg/mL"},
      {"measurement": "Plasma Concentrations", "setting": "[1]; 12 hr", "result": 29, "unit": "µg/mL"},
      {"measurement": "Plasma Concentrations", "setting": "[2]; 0.5 hr", "result": 151, "unit": "µg/mL"},
      {"measurement": "Plasma Concentrations", "setting": "[2]; 1 hr", "result": 111, "unit": "µg/mL"},
      {"measurement": "Plasma Concentrations", "setting": "[2]; 2 hr", "result": 88, "unit": "µg/mL"},
      {"measurement": "Plasma Concentrations", "setting": "[2]; 4 hr", "result": 67, "unit": "µg/mL"},
      {"measurement": "Plasma Concentrations", "setting": "[2]; 6 hr", "result": 53, "unit": "µg/mL"},
      {"measurement": "Plasma Concentrations", "setting": "[2]; 8 hr", "result": 43, "unit": "µg/mL"},
      {"measurement": "Plasma Concentrations", "setting": "[2]; 12 hr", "result": 28, "unit": "µg/mL"},
      {"measurement": "Plasma Concentrations", "setting": "[2]; 16 hr", "result": 18, "unit": "µg/mL"},
      {"measurement": "Plasma Concentrations", "setting": "[2]; 24 hr", "result": 9, "unit": "µg/mL"},
      {"measurement": "dose excreted as unchanged drug in the urine", "setting": "[3]", "result": "33-67%"},
      {"measurement": "Plasma Concentration of Ceftriaxone Over Time After IV Administration", "setting": "[4]; animal 006, 0.00 Hours", "result": "BLQ (BLQ = Below Limit of Quantitation (<1.00 mcg/mL))"},
      {"measurement": "concentration at 0.5 h", "setting": "[4]; animal 006, 0.5 Hours, read-out: Plasma Concentration of Ceftriaxone Over Time After IV Administration", "result": 198, "unit": "µg/mL"},
      {"measurement": "concentration at 1 h", "setting": "[4]; animal 006, 1.0 Hours, read-out: Plasma Concentration of Ceftriaxone Over Time After IV Administration", "result": 136, "unit": "µg/mL"},
      {"measurement": "concentration at 2 h", "setting": "[4]; animal 006, 2.0 Hours, read-out: Plasma Concentration of Ceftriaxone Over Time After IV Administration", "result": 90.8, "unit": "µg/mL"},
      {"measurement": "concentration at 4 h", "setting": "[4]; animal 006, 4.0 Hours, read-out: Plasma Concentration of Ceftriaxone Over Time After IV Administration", "result": 36.4, "unit": "µg/mL"},
      {"measurement": "concentration at 6 h", "setting": "[4]; animal 006, 6.0 Hours, read-out: Plasma Concentration of Ceftriaxone Over Time After IV Administration", "result": 27.3, "unit": "µg/mL"},
      {"measurement": "solubility in ethanol", "setting": "[5]; ethanol", "result": "slightly soluble"},
      {"measurement": "solubility in methanol", "setting": "[5]; methanol", "result": "sparingly"},
      {"measurement": "solubility in water", "setting": "[5]; water", "result": "readily soluble"},
      {"measurement": "Study Sample Concentration", "setting": "[6]; 0.00 Hours", "result": "BLQ (BLQ = Below Limit of Quantitation (<1.00 mcg/mL))"},
      {"measurement": "Study Sample Concentration", "setting": "[6]; 0.5 Hours", "result": "40.194 µg/mL and 31.84 µg/mL and 110.88 µg/mL and 143.15 µg/mL and 35.69 µg/mL"},
      {"measurement": "Study Sample Concentration", "setting": "[6]; 1.0 Hours", "result": "27.41 µg/mL and 21.71 µg/mL and 75.60 µg/mL and 97.60 µg/mL and 24.33 µg/mL"},
      {"measurement": "Study Sample Concentration", "setting": "[6]; 2.0 Hours", "result": "18.27 µg/mL and 14.47 µg/mL and 50.40 µg/mL and 65.07 µg/mL and 16.22 µg/mL"},
      {"measurement": "Study Sample Concentration", "setting": "[6]; 4.0 Hours", "result": "7.31 µg/mL and 5.79 µg/mL and 20.16 µg/mL and 26.03 µg/mL and 6.44 µg/mL"},
      {"measurement": "Study Sample Concentration", "setting": "[6]; 6.0 Hours", "result": "5.48 µg/mL and 4.34 µg/mL and 15.12 µg/mL and 19.52 µg/mL and 4.87 µg/mL"}
    ]}
  ]
}
